“Also recorded” adds a separate entry of the source.
Tested on: 6-year children with autistic spectrum disorders and severe cognitive impairments
Test: Complex therapy of 6-year children, copolymer tablets added to basic therapy with neuroleptics
Format: in vivo
Source text: The method can be used for the treatment of autistic disorders and cognitive impairments in 6-year children. A treatment regimen is selected by a specialist depending on the severity of a disease, condition and age of a patient. In particular, the treatment can be performed according to the following regimen: administration of a medicament 3 times per day for 5 days followed by the 5-day break. This ten-day cycle is repeated […]. The total duration of the treatment is 30 days. A dose of the active agent is 36 mg/day. Then, the course should be repeated.
The efficacy and safety of the use of sodium carboxymethyl cellulose polymer with a degree of substitution of 0.35 to 0.80 and gossypol, of formula (I) in a complex therapy of 6-year children with autistic spectrum disorders and severe cognitive impairments were studied. The children were administered with a medicament comprising a copolymer of sodium carboxymethyl cellulose with a degree of substitution of 0.35 to 0.80 and gossypol, of formula (I) (tablets containing 12 mg of the active agent, which composition is shown in Table 2) on the background of basic therapy with neuroleptics such as neuleptil, haloperidol, aminazine, teraligen, triphtazine, eglonil, azaleptin chlorprothixene. Antidepressants (e.g., anafranil) and anticonvulsants (finlepsin, trileptal, or topamax) were used in some cases. Neuroleptics, antidepressants and anticonvulsants were used in optimal therapeutic doses. […] When the therapy was supplemented with a medicament comprising a copolymer of sodium carboxymethyl cellulose with a degree of substitution of 0.35 to 0.80 and gossypol, of formula (I), the manifestations of encopresis and enuresis ceased, catatonic disorders decreased, cognitive functions improved, and speech appeared. In patients with mild to moderate autism, restricted repetitive behavior disappeared.

[1] = patients with very severe autism, therapy supplemented with the medicament

Substance: sodium salt of copolymer of carboxymethyl cellulose with a degree of substitution of 0.35 to 0.80 and gossypol
- resistance to therapy with neuroleptics / psychotropic drugs (added to basic therapy, especially patients with very severe autism, 12 mg tablets): decreased; also recorded: elimination
- negative side effects on a patient (in vivo): does not have negative side effects
- tolerability (in vivo): well tolerable
- toxic and allergic reactions (in vivo): not reported
- restricted repetitive behavior (patients with mild to moderate autism): disappeared
- catatonic disorders [1]: decreased
- manifestations of encopresis and enuresis [1]: ceased
- speech [1]: appeared
- cognitive functions (therapy supplemented with the medicament): improved; also recorded: significant improvement
- mental condition of the patients (when administering the medicament): improved

Reference: patent US9078916B2, “Method for producing and using a copolymer of sodium carboxymethyl cellulose and gossypol” (Limited Liability Company “Nearmedic Plus”, priority 2010, dated 2015)
